Key:
[1] = biological target: human orexin 2 receptors (Homo sapiens (Human), UniProt O43614); assay: Calcium Accumulation in Cells (FLIPR), antagonism of orexin A; format: cell-based; details: for Ki: antagonism of orexin A, Cheng-Prusoff corrected, read-out: FLIPR hOx2R Ki
Procedure, shortened: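 Antagonism was measured as block of orexin A-evoked Ca²⁺ fluorescence (FLIPR), with orexin A added one hour after test compound (usually 10^−9–10^−5 M), which was first read alone for agonist activity. Human orexin 2 receptor cells were dye-loaded with 2 μM Fluo4-AM and 0.1 mM probenecid for 1 h.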

[2] = biological target: human orexin 1 receptors (Homo sapiens (Human), UniProt O43613); assay: as above; format: cell-based; details: for Ki: antagonism of orexin A, Cheng-Prusoff corrected, read-out: FLIPR hOx1R Ki; for inhibition at 10 µM: measured at a concentration of 10 μM of compound, read-out: FLIPR hOx1R % inhibition value
Chain of human orexin 1 receptors (O43613 whole entry): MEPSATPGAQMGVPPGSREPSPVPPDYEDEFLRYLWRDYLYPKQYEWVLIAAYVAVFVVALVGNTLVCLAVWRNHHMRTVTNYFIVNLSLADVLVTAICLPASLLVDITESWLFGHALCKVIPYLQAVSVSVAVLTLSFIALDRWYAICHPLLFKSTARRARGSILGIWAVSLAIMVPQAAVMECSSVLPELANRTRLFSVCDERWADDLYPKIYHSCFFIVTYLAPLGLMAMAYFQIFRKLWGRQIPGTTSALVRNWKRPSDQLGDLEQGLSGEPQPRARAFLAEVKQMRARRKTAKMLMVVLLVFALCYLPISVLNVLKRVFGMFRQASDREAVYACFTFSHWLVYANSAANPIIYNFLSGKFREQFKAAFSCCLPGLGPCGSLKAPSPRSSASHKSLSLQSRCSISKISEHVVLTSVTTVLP

Chain of human orexin 2 receptors (O43614 whole entry): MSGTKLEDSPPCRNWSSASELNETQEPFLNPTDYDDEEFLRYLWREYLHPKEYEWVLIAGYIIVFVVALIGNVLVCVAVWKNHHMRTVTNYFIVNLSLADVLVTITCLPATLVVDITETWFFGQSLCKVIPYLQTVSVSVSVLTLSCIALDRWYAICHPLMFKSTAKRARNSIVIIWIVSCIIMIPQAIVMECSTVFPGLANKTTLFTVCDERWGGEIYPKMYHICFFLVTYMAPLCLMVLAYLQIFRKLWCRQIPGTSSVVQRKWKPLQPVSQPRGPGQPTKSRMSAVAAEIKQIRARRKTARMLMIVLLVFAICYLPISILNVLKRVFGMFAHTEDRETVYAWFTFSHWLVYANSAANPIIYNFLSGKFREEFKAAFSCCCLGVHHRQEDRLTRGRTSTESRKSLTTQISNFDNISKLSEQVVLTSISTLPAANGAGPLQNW

| SMILES | Ki [1] | Ki [2] | inhibition at 10 µM [2] | inhibition at 10 µM ([1]; measured at a concentration of 10 μM of compound, read-out: FLIPR hOx2R % inhibition value) |
| --- | --- | --- | --- | --- |
| COc1ccc(C(C)NC(=O)COc2cc(C(F)F)c3c(C4CC4)nn(C)c3n2)cn1 (stereo not drawn) [Example 6.10, 2-(3-cyclopropyl-4-(difluoromethyl)-1-methyl-1H-pyrazolo[3,4-b]pyridin-6-yloxy)-N-(1-(6-methoxypyridin-3-yl)ethyl)acetamide] | 184 nM | 516 nM |  |  |
| Cc1ccc([C@H](C)NC(=O)COc2cc(C(C)C)c3c(C4CC4)nn(C)c3n2)cc1 [Example 6.11, (S)-2-(3-cyclopropyl-4-isopropyl-1-methyl-1H-pyrazolo[3,4-b]pyridin-6-yloxy)-N-(1-p-tolylethyl)acetamide] | 208 nM | 691 nM |  |  |
| Cc1nn(C)c(C)c1C(C)NC(=O)COc1cc(C(F)(F)F)c2c(C3CC3)nn(C)c2n1 (stereo not drawn) [Example 6.12, 2-(3-cyclopropyl-1-methyl-4-(trifluoromethyl)-1H-pyrazolo[3,4-b]pyridin-6-yloxy)-N-(1-(1,3,5-trimethyl-1H-pyrazol-4-yl)ethyl)acetamide] | 165 nM | 680 nM |  |  |
| Cc1ccc(C(C)NC(=O)COc2cc(C(F)(F)F)c3c(C4CC4)nn(C)c3n2)cn1 (stereo not drawn) [Example 6.16, 2-(3-cyclopropyl-1-methyl-4-(trifluoromethyl)-1H-pyrazolo[3,4-b]pyridin-6-yloxy)-N-(1-(6-methylpyridin-3-yl)ethyl)acetamide] | 188 nM | 1590 nM |  |  |
| Cc1ccc(C(C)NC(=O)COc2cc(C(F)F)c3c(-c4ccccc4)nn(C)c3n2)cn1 (stereo not drawn) [Example 6.18, 2-(4-(difluoromethyl)-1-methyl-3-phenyl-1H-pyrazolo[3,4-b]pyridin-6-yloxy)-N-(1-(6-methylpyridin-3-yl)ethyl)acetamide] | 98 nM | 535 nM |  |  |
| Cc1ccc(C(C)NC(=O)COc2cc(C(F)F)c3c(C4CC4)nn(C)c3n2)cn1 (stereo not drawn) [Example 6.19, 2-(3-cyclopropyl-4-(difluoromethyl)-1-methyl-1H-pyrazolo[3,4-b]pyridin-6-yloxy)-N-(1-(6-methylpyridin-3-yl)ethyl)acetamide] | 800 nM |  | 41% |  |
| Cc1ccc([C@H](C)NC(=O)COc2ccc3c(C4CC4)nn(C)c3n2)cc1 [Example 6.23, (S)-2-(3-cyclopropyl-1-methyl-1H-pyrazolo[3,4-b]pyridin-6-yloxy)-N-(1-p-tolylethyl)acetamide] | 237 nM | 1100 nM |  |  |
| COc1ccc([C@H](C)NC(=O)COc2cc(C)c3c(C(C)C)nn(C)c3n2)cc1 [Example 6.27, (S)-2-(3-isopropyl-1,4-dimethyl-1H-pyrazolo[3,4-b]pyridin-6-yloxy)-N-(1-(4-methoxyphenyl)ethyl)acetamide] | 105 nM | 415 nM |  |  |
| COc1ccc(C(C)NC(=O)COc2cc(C)c3c(C(C)C)nn(C)c3n2)cn1 (stereo not drawn) [Example 6.28, 2-(3-isopropyl-1,4-dimethyl-1H-pyrazolo[3,4-b]pyridin-6-yloxy)-N-(1-(6-methoxypyridin-3-yl)ethyl)acetamide] | 1220 nM |  | 39% |  |
| Cc1nn(C)c(C)c1C(C)NC(=O)COc1cc(C)c2c(C(C)C)nn(C)c2n1 (stereo not drawn) [Example 6.29, 2-(3-isopropyl-1,4-dimethyl-1H-pyrazolo[3,4-b]pyridin-6-yloxy)-N-(1-(1,3,5-trimethyl-1H-pyrazol-4-yl)ethyl)acetamide] |  |  | 36% | 34% |
| COc1ccc(C(C)NC(=O)COc2cc(C)c3c(-c4cc(C)oc4C)nn(C)c3n2)cn1 (stereo not drawn) [Example 6.32, 2-(3-(2,5-dimethylfuran-3-yl)-1,4-dimethyl-1H-pyrazolo[3,4-b]pyridin-6-yloxy)-N-(1-(6-methoxypyridin-3-yl)ethyl)acetamide] | 950 nM | 845 nM |  |  |
| Cc1ccc([C@H](C)NC(=O)COc2ccc3c(-c4ccccc4C)nn(C)c3n2)cc1 [Example 6.35, (S)-2-(1-methyl-3-o-tolyl-1H-pyrazolo[3,4-b]pyridin-6-yloxy)-N-(1-p-tolylethyl)acetamide] | 126 nM | 256 nM |  |  |

Reference: patent publication US8742106B2 (Novartis AG, priority 2009, dated 2014)
